Common to all, as to format: in vivo
The test system of one assay is Phaedon cochleariae. Description: Phaedon cochleariae test (cabbage leaves dipped, populated with larvae). Conditions: 200 ppm, larvae on cabbage leaves. As for the experimental part: (§1) Solvent: 7 parts by weight of dimethylformamide
(§2) Emulsifier: 2 parts by weight of alkylaryl polyglycol ether
(§3) To produce a suitable preparation of active compound, 1 part by weight of active compound is mixed with the stated amounts of solvent and emulsifier, and the concentrate is diluted with emulsifier-containing water to the desired concentration.
After the desired period of time, the kill in % is determined. 100% means that all beetle larvae have been killed; 0% means that none of the beetle larvae have been killed. The kill rates determined are entered into Colby's formula (see page 1).

In the next assay the test system is Aphis gossypii. Description: Aphis gossypii test (cotton leaves dipped into active compound preparation). As for the experimental part: as §1, §2, §3
Cotton leaves (Gossypium hirsutum) which are heavily infested by the cotton aphid (Aphis gossypii) are treated by being dipped into the preparation of active compound of the desired concentration.
(§4) After the desired period of time, the kill in % is determined. 100% means that all aphids have been killed; 0% means that none of the aphids have been killed. The kill rates determined are entered into Colby's formula (see page 1).

The next assay deals with Myzus persicae. Description: Myzus persicae test (cabbage leaves dipped into active compound preparation). As for the experimental part: as §1, §2, §3
Cabbage leaves (Brassica oleracea) which are heavily infested by the Green peach aphid (Myzus persicae) are treated by being dipped into the preparation of active compound of the desired concentration.
as §4

With `O=C1C=C(N(Cc2ccc(Cl)nc2)C2CC2)CO1` [compound (Ib), 4-[[(6-chloropyridin-3-yl)methyl] (cyclopropylamino)]furan-2-(5H)-one], the “Kill in % after 3^d” value in the assay on Phaedon cochleariae is on record as 60%. Also, in the assay with Aphis gossypii (0.8 ppm), the “Kill in % after 1^d” value came to 30% and the “Kill in % after 6^d” value was 40%. For the same compound, the “Kill in % after 1^d” value with Myzus persicae (4 ppm) came to 75%.

Regarding `CO/N=C(/C(=O)OC)c1ccccc1CO/N=C(\C)c1cccc(C(F)(F)F)c1` [trifloxystrobin, reference compound], in the assay with Aphis gossypii (100 ppm), the “Kill in % after 6^d” value was 40%.

In the case of `CCCOC(=O)NCCCN(C)C` [propamocarb, reference compound], the “Kill in % after 3^d” value with Phaedon cochleariae was found to be 5%.

With `OC(Cc1ccccc1Cl)(Cn1nc[nH]c1=S)C1(Cl)CC1` (centres unmarked) [prothioconazole, reference compound], in the assay on Myzus persicae (100 ppm), the “Kill in % after 1^d” value is 0% and the “Kill in % after 6^d” value is listed as 0%.

Consider `CN(Cc1ccc(Cl)nc1)C1=CC(=O)OC1` [compound (Ia), 4-[[(6-chloropyridin-3-yl)methyl](methylamino)]furan-2-(5H)-one], for which the results for the “Kill in % after 6^d” value in the assay with Aphis gossypii (0.16 ppm), with Aphis gossypii (0.8 ppm) and with Myzus persicae (0.8 ppm) were 40%, 70% and 75%, respectively. Further, the results for the “Kill in % after 1^d” value in the assay on Myzus persicae (0.16 ppm) and in the assay with Myzus persicae (0.8 ppm) were 0% and 40%, respectively.

On to `N#Cc1c[nH]cc1-c1cccc2c1OC(F)(F)O2` [fludioxonil, reference compound], for which the “Kill in % after 6^d” value in the assay on Aphis gossypii (100 ppm) came out at 0%. Also, the “Kill in % after 1^d” value in the assay on Myzus persicae (100 ppm) was determined as 0%.

As to `COCC(=O)N(c1c(C)cccc1C)C(C)C(=O)OC` (centres unmarked) [metalaxyl, reference compound], the “Kill in % after 1^d” value with Aphis gossypii (100 ppm) is recorded as 10%; in the assay on Myzus persicae (100 ppm), 0%.

For the origin of these results see US8324130B2, “Synergistic active ingredient combinations” (Bayer Cropscience AG, priority 2006, dated 2012).
